Legend:
BALB/c mice = assay: Anti-peptide antibody response (ELISA) in BALB/c mice immunized with peptide multimers; type: in vivo; design: key to Antipeptide Antibody Reactivity to Analogous Peptide: −: cpm values are corrected and categorized according to unrelated antigen response in vitro.; •: Not determined.; +: cpm values are corrected and categorized according to unrelated antigen response in vitro.; ++: cpm values are corrected and categorized according to unrelated antigen response in vitro.; +++: cpm values are corrected and categorized according to unrelated antigen response in vitro.; ++++: cpm values are corrected and categorized according to unrelated antigen response in vitro; details: for Antipeptide Antibody Reactivity to Analogous Peptide: antibody raised in Balb/C mice, ELISA end point; for anti-peptide antibody response (in words): high molecular weight forms of the peptides
[1] = tested on: PBMCs of immunized rhesus monkeys; assay: PBMC proliferation in rhesus monkeys immunized with a mixture of eight synthetic peptides; type: in vivo; design: key to T-cell Proliferation Responses: —: no detectable response; 1+: poor response; 2+: good response; 3+: better response; 4+: best response; 6+: best response; details: for PBMC proliferative responses (in words): three rhesus monkeys, monitored for 32 weeks; for T-cell Proliferation Responses: PBMC response to the individual peptide or gp160
Method: In the present studies, three rhesus monkeys (#7, #23 and #283C) were immunized subcutaneously with 1 ml (0.1 ml/site) of a mixture of eight synthetic peptides (300·g of each peptide in sterile water) emulsified in complete Freund's adjuvant at 1:1 ratio. […] At 3 and 7 weeks after the primary immunization, two booster injections of the peptide mixture (150·g of each peptide in sterile water) emulsified in incomplete Freund's adjuvant were given to each monkey. Monkey #7 was terminated after […], for health reasons unrelated to the study, while the remaining two monkeys (#283C and #23) received one additional booster injection at 25 weeks.
At two week intervals following the first immunization of each animal, 15 ml of whole heparinized blood was collected by venous puncture. The peripheral blood mononuclear cells (PBMC) were separated by standard ficoll-hypaque centrifugation and employed in proliferation assays. The PBMCs were monitored every two weeks for a period of 32 weeks for proliferative responses against individual peptides and recombinant gp160.

[2] = tested on: PLN cells from A SW × Balb/c F1 mice; assay: In vitro proliferation (3H-TdR) of PLN cells from immunized A.SW x BALB/c F1 mice; type: in vivo, A.SWXBALB/C F1 mice; design: key: −: cpm values are corrected and categorized according to unrelated antigen response in vitro.; •: Not determined.; +: cpm values are corrected and categorized according to unrelated antigen response in vitro.; ++: cpm values are corrected and categorized according to unrelated antigen response in vitro.; +++: cpm values are corrected and categorized according to unrelated antigen response in vitro.; ++++: cpm values are corrected and categorized according to unrelated antigen response in vitro; details: for In Vitro Proliferation of PLN Cells from A SW × Balb/c F1, GP 160: in vitro antigen: GP 160; for In Vitro Proliferation of PLN Cells from A SW × Balb/c F1, Analogous Peptide: in vitro antigen: analogous peptide
[3] = tested on: PLN cells from B6C3F1 mice; assay: In vitro proliferation (3H-TdR) of PLN cells from immunized B6C3 F1 mice; type: in vivo; design: key to In Vitro Proliferation of PLN Cells from B6C3F1, Analogous Peptide / In Vitro Proliferation of PLN Cells from B6C3F1, GP 160: −: cpm values are corrected and categorized according to unrelated antigen response in vitro.; •: Not determined.; +: cpm values are corrected and categorized according to unrelated antigen response in vitro.; ++: cpm values are corrected and categorized according to unrelated antigen response in vitro.; +++: cpm values are corrected and categorized according to unrelated antigen response in vitro.; ++++: cpm values are corrected and categorized according to unrelated antigen response in vitro; details: for In Vitro Proliferation of PLN Cells from B6C3F1, GP 160: in vitro antigen: GP 160; for In Vitro Proliferation of PLN Cells from B6C3F1, Analogous Peptide: in vitro antigen: analogous peptide
[4] = tested on: HIV-1 IIIB infection of human cells; type: cell-based; also: test concentration or dose not given here
[5] = disulfide (di-Cys) polymeric form

In the case of GVPVWKEATTLFC [Peptide 105], the “Antipeptide Antibody Reactivity to Analogous Peptide” value (BALB/c mice) is reported as “•”, the “anti-peptide antibody response (in words)” value (BALB/c mice) is reported as “high antibody titers” and the “PBMC proliferative responses (in words)” value [1] is reported as “A significant response was not detected”. For the same sequence, the “In Vitro Proliferation of PLN Cells from A SW × Balb/c F1, GP 160” value [2] was “−”, the “In Vitro Proliferation of PLN Cells from A SW × Balb/c F1, Analogous Peptide” value [2] was “+” and the “In Vitro Proliferation of PLN Cells from B6C3F1, GP 160” value [3] was “+++”. For the same sequence, the “In Vitro Proliferation of PLN Cells from B6C3F1, Analogous Peptide” value [3] was “++++”.

In the case of VYYGVPVWKEA [Peptide 104], the “Antipeptide Antibody Reactivity to Analogous Peptide” value (BALB/c mice) is reported as “•”, the “anti-peptide antibody response (in words)” value (BALB/c mice) is reported as “very low to negligible amounts of anti-peptide antibodies” and the “T-cell Proliferation Responses” value ([1]; Rhesus Monkey #7) is reported as 4+. For the same sequence, the “T-cell Proliferation Responses” value ([1]; Rhesus Monkey #23) was 2+, the “T-cell Proliferation Responses” value ([1]; Rhesus Monkey #283C) was 4+ and the “PBMC proliferative responses (in words)” value [1] was “good proliferative responses”. The “In Vitro Proliferation of PLN Cells from A SW × Balb/c F1, GP 160” value [2] was “+”, the “In Vitro Proliferation of PLN Cells from A SW × Balb/c F1, Analogous Peptide” value [2] was “+++” and the “In Vitro Proliferation of PLN Cells from B6C3F1, GP 160” value [3] was “++”. The “In Vitro Proliferation of PLN Cells from B6C3F1, Analogous Peptide” value [3] was “++++”.

FEPIPIHYCAFPGF [Peptide 114] was tested, and the “Antipeptide Antibody Reactivity to Analogous Peptide” value (BALB/c mice) was “++++”, the “anti-peptide antibody response (in words)” value (BALB/c mice) was “high antibody titers” and the “In Vitro Proliferation of PLN Cells from A SW × Balb/c F1, GP 160” value [2] was “+”. For the same sequence, the “In Vitro Proliferation of PLN Cells from A SW × Balb/c F1, Analogous Peptide” value [2] was “++”, the “In Vitro Proliferation of PLN Cells from B6C3F1, GP 160” value [3] was “−” and the “In Vitro Proliferation of PLN Cells from B6C3F1, Analogous Peptide” value [3] was “++”.

With SVITQACSKVSFE [Peptide 113] the “Antipeptide Antibody Reactivity to Analogous Peptide” value (BALB/c mice) was “−”, the “anti-peptide antibody production (in words)” value (BALB/c mice; [5]) was “do not stimulate anti-peptide antibody production” and the “anti-peptide antibody response (in words)” value (BALB/c mice) was “very low to negligible amounts of anti-peptide antibodies”. The “T-cell Proliferation Responses” value ([1]; Rhesus Monkey #7) was 1+, the “T-cell Proliferation Responses” value ([1]; Rhesus Monkey #23) was 2+ and the “T-cell Proliferation Responses” value ([1]; Rhesus Monkey #283C) was 2+. For the same sequence, the “PBMC proliferative responses (in words)” value [1] was “weak responses”, the “In Vitro Proliferation of PLN Cells from A SW × Balb/c F1, GP 160” value [2] was “+” and the “In Vitro Proliferation of PLN Cells from A SW × Balb/c F1, Analogous Peptide” value [2] was “++”. The “T cell response against the corresponding peptide and native HIV envelope protein gp160 (in words)” value [3, 5] was “strong T cell response”, the “In Vitro Proliferation of PLN Cells from B6C3F1, GP 160” value [3] was “+” and the “In Vitro Proliferation of PLN Cells from B6C3F1, Analogous Peptide” value [3] was “++”.

With “RVTLGPGRVWYTTGE [Peptide D29, V3 loop peptide, strain CDC4]” the “% RT INHIBITION” value [4] was 0%.

In the case of “STPIGLGQALYTTRG [Peptide D35, V3 loop peptide, strain Z6]”, the “% RT INHIBITION” value [4] is reported as 30.3%.

“SLSIGPGRAPRTREI [Peptide D25, V3 loop peptide, strain WMJ-3]” was tested, and the “% RT INHIBITION” value [4] was 42.4%.

CVPTNPVPQEVV [Peptide 107] was tested, and the “Antipeptide Antibody Reactivity to Analogous Peptide” value (BALB/c mice) was “+”, the “anti-peptide antibody response (in words)” value (BALB/c mice) was “high antibody titers” and the “In Vitro Proliferation of PLN Cells from A SW × Balb/c F1, GP 160” value [2] was “+”. The “In Vitro Proliferation of PLN Cells from A SW × Balb/c F1, Analogous Peptide” value [2] was “+”, the “In Vitro Proliferation of PLN Cells from B6C3F1, GP 160” value [3] was “++” and the “In Vitro Proliferation of PLN Cells from B6C3F1, Analogous Peptide” value [3] was “++”.

For VQCTHGIRPVVSTQ [Peptide 117], the “Antipeptide Antibody Reactivity to Analogous Peptide” value (BALB/c mice) was “++++”, the “anti-peptide antibody response (in words)” value (BALB/c mice) was “high antibody titers” and the “In Vitro Proliferation of PLN Cells from B6C3F1, GP 160” value [3] was “−”. The “In Vitro Proliferation of PLN Cells from B6C3F1, Analogous Peptide” value [3] was “+++”.

AHKVWATHACV [Peptide 106] was tested, and the “Antipeptide Antibody Reactivity to Analogous Peptide” value (BALB/c mice) was “++”, the “anti-peptide antibody response (in words)” value (BALB/c mice) was “high antibody titers” and the “In Vitro Proliferation of PLN Cells from A SW × Balb/c F1, GP 160” value [2] was “+”. The “In Vitro Proliferation of PLN Cells from A SW × Balb/c F1, Analogous Peptide” value [2] was “++++”, the “In Vitro Proliferation of PLN Cells from B6C3F1, GP 160” value [3] was “+” and the “In Vitro Proliferation of PLN Cells from B6C3F1, Analogous Peptide” value [3] was “+++”.

Source: patent publication US7319000B1, “Compositions and methods for eliciting immune or anti-infective responses” (priority 1992, dated 2008)
